Format in all cases: in vivo
One data set has as its system yellow nutsedge. Description: Herbicide effect, foliar spray on yellow nutsedge grown in pots (Test Example 1). Particulars: 5 days after treatment, levels 0-10. The arrangement: key: a level was taken “0” when completely or almost no difference was observed between the growth behavior of a test weed at the time of observation and that of untreated weed; a level was taken “10” when a test weed completely died or the growth of that was completely inhibited. On the procedure:
(§1) Evaluation of phytotoxicity against a crop was shown by “no” when almost no phytotoxicity was observed, “low” when a low level phytotoxicity was observed, “medium” when a medium level phytotoxicity was observed and “high” when a high level phytotoxicity was observed.
(§2) A plastic pot of 11 cm in diameter and 8 cm in depth was filled with field soil. A tuber of yellow nutsedge was buried and grown in a greenhouse for 28 days.
(§3) An emulsion of Compound A-1 was prepared by sufficiently mixing 5 parts of Compound A-1, 6 parts of Sorpol 3005X (surfactant, produced by Toho Chemical) and 89 parts of xylene.
(§4) Each of • (a) single use of an emulsion of Compound A-1, • (b) single use of a solution of Glyphosate isopropylamine salt (commercial name: Roundup, produced by Nippon Monsanto, containing 41% of Glyphosate isopropylamine salt), • (c) single use of a solution of Gltfosinate-Ammonium (commercial name: Basta, produced by Hoechst Schering AgrEvo GmbH, containing 18.5% of Glufosinate-Ammonium), • (d) a mixed composition of an emulsion of Compound A-1 and a solution of Glyphosate isopropylamine salt, and • (e) a mixed composition of an emulsion of Compound A-1 and a solution of Glufosinate-Ammonium were diluted with water containing 1% Agri-dex (produced by Helena). Respective dilutions were uniformly sprayed from upper side onto foliages of yellow nutsedge grown as described above with a small sprayer such that the amounts of the active ingredients were the amounts shown in Table 4. Immediately after the treatment with the test compounds, seeds of corn, soybean and cotton were sown.
(§5) After the treatment, they were raised in a greenhouse for 5 days and the effect against weeds was evaluated. In addition, after 14 days of the treatment, the phytotoxicity to corn, soybean and cotton was evaluated.

The subject of a further data set is soybean. The data set is described as follows: Phytotoxicity to soybean sown immediately after treatment (Test Example 1). The arrangement: key: “no” when almost no phytotoxicity was observed; “low” when a low level phytotoxicity was observed; “medium” when a medium level phytotoxicity was observed; “high” when a high level phytotoxicity was observed. Particulars: 14 days after treatment. On the procedure:
as §1, §2, §3, §4, §5

The subject of another data set is cotton. The data set is described as follows: Phytotoxicity to cotton sown immediately after treatment (Test Example 1). Further details: key: “no” when almost no phytotoxicity was observed; “low” when a low level phytotoxicity was observed; “medium” when a medium level phytotoxicity was observed; “high” when a high level phytotoxicity was observed. Particulars: 14 days after treatment. The protocol:
as §1, §2, §3, §4, §5

For the next data set, the system named is corn. The data set is described as follows: Phytotoxicity to corn sown immediately after treatment (Test Example 1). Further details: key: “no” when almost no phytotoxicity was observed; “low” when a low level phytotoxicity was observed; “medium” when a medium level phytotoxicity was observed; “high” when a high level phytotoxicity was observed. Particulars: 14 days after treatment. The protocol: as §1, §2, §3, §4, §5

Structures can show the parent of a compound that is named as a salt.

As for `CP(=O)(O)CCC(N)C(=O)O.N` (racemic) [Glufosinate-Ammonium, ammonium DL-homoalanin-4-yl(methyl)phosphinate], the figures for the “Herbicide Effect” value in the data set on yellow nutsedge (100 g/ha) and in the data set on yellow nutsedge (500 g/ha) were 0 and 2, respectively. Also, the “Phytotoxicity Be” value in the data set on soybean (100 g/ha) and in the data set with soybean (500 g/ha) was “no” in each case. The “Phytotoxicity Ct” value in the data set with cotton (100 g/ha) and in the data set with cotton (500 g/ha) was “no” throughout. Also, the “Phytotoxicity Cr” value with corn (100 g/ha) and with corn (500 g/ha) was “no” throughout.
Regarding `O=C(O)CNCP(=O)(O)O` [Glyphosate Isopropylamine Salt, N-(phosphonomethyl)glycine], the “Herbicide Effect” value in the data set with yellow nutsedge (200 g/ha) and in the data set with yellow nutsedge (1000 g/ha) was 0 throughout. Further, the “Phytotoxicity Be” value in the data set on soybean (200 g/ha) and with soybean (1000 g/ha) was “no” throughout. Further, the “Phytotoxicity Ct” value in the data set with cotton (200 g/ha) and with cotton (1000 g/ha) was “no” in each case. Further, the “Phytotoxicity Cr” value in the data set on corn (200 g/ha) and with corn (1000 g/ha) was “no” each time.

These data come from patent publication US7732602B2, “Herbicide composition” (Sumitomo Chemical Company, Limited, priority 2001, dated 2010).
